Results as given in US20120020876A1, “HEDGEHOG PATHWAY INHIBITORS” (priority 2009, published 2012).
“Also recorded” adds a separate entry of the source. Blank lines part the entries; values can stand above or below the compound they belong to.

Legend:
[1] = Gd-DTPA delivery by DCE-MRI; format: in vivo, mouse; conditions: 0.1 mmol/kg Gd-DTPA
Method: Magnetic resonance imaging experiments were carried out on a Varian MRI system (Varian, Inc, Palo Alto, Calif., USA) equipped with a 9.4T horizontal bore cryo-cooled superconducting magnet of 210 mm bore and a gradient set of strength 40 G/cm, 120 μsec risetime and internal diameter 120 mm. The imaging probe used was a Varian Millipede of 40 mm internal diameter. Mice were anaesthetized with Hypnorm/Hypnovel. Anatomical images were obtained using coronal T2-weighted fast spin-echo (repetition time TR=2000 ms, effective echo time TE=25 ms, echo train length 8 echoes, 512×512 points, field of view 80×80 mm, slice thickness/gap 1.5/0.5 mm, 12-15 slices) with chemical shift-selective fat suppression and respiratory gating. All other images were matched to the slice positions and field of view of the anatomical images. […] DCE-MRI data were analyzed in software custom-written in MATLAB 7.4 (The Mathworks, Inc, Natick, Mass., USA) using the model of Tofts and Kermode to evaluate the pharmacokinetic parameters Ktrans and ve, and additionally calculating the area under the [gadolinium]-time curve over the first 60 seconds post-injection (IAUGC60), as recommended by a panel of experts for vascular-related studies in oncology.

[2] = Vascular labeling and drug diffusion: doxorubicin delivery by confocal microscopy; format: in vivo, mouse; conditions: in comparison to control tissues and transplanted tumors; i.v. with lectin
Method: To assess the functional vasculature, biotin-conjugated Lycopersicon esculentum lectin (B1175-1 mg, Vector Laboratories) was resuspended in 425 μL PBS and mixed with 75 μL of 1 mg/mL Streptavidin-AlexaFluor 633 (S21375, Molecular Probes) (in sterile PBS). Prior to use, the lectin-avidin mixture was centrifuged 14,000 k on a microfuge for 10 minutes to remove any particulate. Fifteen minutes prior to euthanasia, 100 μl (0.4 mg total) of the conjugated lectin was administered as a slow intravenous infusion over 5 minutes, and the hemodynamics monitored closely to ensure that it was tolerated. For doxorubicin experiments, five minutes prior to euthanasia mice were also infused with a 20 mg/kg doxorubicin solution (D-1515.10 mg, in sterile saline, Sigma) over one minute.
While under terminal anesthesia, mice were perfused with 4% paraformaldehyde in PBS, pH 7.4. Perfused tissues were harvested, fixed overnight in 4% paraformaldehyde in PBS, pH 7.4 and transferred to 70% ethanol. Tissues were embedded in paraffin, sectioned, rehydrated, and counterstained with DAPI. The lectin labeling experiments were reproduced independently in a second laboratory (SRH, KI).
Mice were infused with 30 ml of 4% PFA pH 7.4 using a Harvard Apparatus PhD 2000 syringe pump at a rate of […]. […] Doxorubicin fluorescence was excited with a 488 nm laser, and emission was detected in a range from 520-620 nm. […]

[3] = system: pancreatic tumors in KPC mice; test: Survival study of tumor-bearing KPC mice; format: in vivo, mouse; conditions: KPC mice enrolled with 5-10 mm tumors
Method: vehicles: 20 μL/g 0.85% NaCl+8 μL/g 5% HPBCD;
Compound A: 40 mg/kg Compound A+20 μL/g 0.85% NaCl;
For survival studies, mice were enrolled following the detection of 5-10 mm diameter tumor by ultrasound. Tumors were quantified by 3D ultrasound twice weekly until endpoint.

[4] = Determination of dFdCTP in tissues by HPLC; format: in vivo, mouse; conditions: 50 or 100 mg/kg gemcitabine i.p., 4 h
Method: Tissues were rapidly dissected and snap frozen in liquid nitrogen. Specimens were maintained at −80° C. until nucleotide extraction. Specimens were ground under liquid nitrogen with a mortar and pestle. The powdered contents were suspended in 0.4N perchloric acid and sonicated in an ice bath. Solids were removed by centrifugation, the pellet was washed with perchloric acid, and the supernatants were combined. Following neutralization with KOH and removal of KClO4 by centrifugation, a portion of the supernatant was analyzed by high-pressure liquid chromatography. The amount of gemcitabine triphosphate was normalized to the ATP level determined in the same sample analysis. Samples with inadequate concentrations of ATP were excluded from analysis.

KPC tumors [5] = test: Proliferation of KPC tumors (phospho-histone H3 immunohistochemistry); format: in vivo, mouse; conditions: 4 days or 8-12 days of treatment
Method: (§1) Tissues were fixed in 10% formalin solution for 24 hours and transferred to 70% ethanol. Tissues were paraffin embedded, sectioned and rehydrated. For CD31 IHC, sections were unmasked in 10 mM EDTA, pH 8.0 in a pressure cooker. For all other antibodies, sections were unmasked in 10 mM citric acid in a pressure cooker. Endogenous peroxidases were quenched in 3% H2O2/PBS for 20 minutes. Remaining steps were carried out with Vectastain ABC kits appropriate to the species of primary antibody (Vector Labs, Burlingame, Calif.) with the following modification: blocking serum was supplemented with Protein Blocking Agent (Immunotech/BeckmanCoulter, Fullerton, Calif.) diluted 1:50. Antigens were developed with DAB Peroxidase Substrate (Vector Labs). The following antibody dilutions were used: Phospho-Histone H3, 1:100 (#9701, Cell Signaling Technology); Cleaved Caspase 3, 1:100 (#9661, Cell Signaling Technology); CD31, 1:75 (SC-1506). Slides were counterstained with hematoxylin.

KPC tumors [6] = test: Apoptosis in KPC tumors (Cleaved Caspase 3 immunohistochemistry); format: in vivo, mouse
Method: as §1

[7] = system: pancreatic ductal adenocarcinoma; conditions: cited from earlier work
KPC pancreatic tumors = test: Monitoring of KPC pancreatic tumor volume by 3D high resolution ultrasonography; format: in vivo, mouse; conditions: gemcitabine 100 mg/kg twice weekly, Compound A 40 ug/kg/day, or both
Excerpt: For survival studies, mice were enrolled following the detection of 5-10 mm diameter tumor by ultrasound. Tumors were quantified by 3D ultrasound twice weekly until endpoint. High resolution ultrasound (US) imaging of normal and diseased mouse pancreas using the Vevo 770 System with a 35 MHz RMV scanhead (Visual Sonics, Inc.). 3D images were produced using the 3D motor arm to collect serial images at 0.25 mm intervals through the thickness of the tumor. Tumors were outlined on each 2D image and reconstructed to quantify the 3D volume using the integrated Vevo 770 software package.

KPC tumors [8] = test: Histology (H&E) of treated KPC tumors; format: in vivo, mouse; conditions: KPC tumors after 8-12 days of treatment
[9] = Gemcitabine (dFdC) in blood of normal mice by HPLC; format: in vivo, mouse
[10] = system: transplanted pancreatic tumors; test: Proliferation of transplanted tumors (phospho-histone H3 immunohistochemistry); format: in vivo, mouse; conditions: gemcitabine Q3Dx4
Method: (§2) 1×10^6 cells suspended in 100 μL of PBS were injected subcutaneously into the flanks of nude mice (xenografts) or into immunocompetent mice (syngeneic). For syngeneic models, recipient mice were descended from mice used to generate the KPC PDA cell lines. Orthotopic tumors with MiaPaca2 were generated as previously described (Niedergethmann et al., Br J Cancer 97, 1432 (Nov. 19, 2007)). Long (L) and short (S) axes of each tumor were measured with calipers (for subcutaneous tumors) or ultrasound (for orthotopic tumors). Tumor volume (V) was calculated: V=(L×S^2)/2. Tumor volumes were normalized relative to the volume at the start of drug treatment for subcutaneous tumors. […] Tumor images were acquired using a pediatric ultrasound machine. This machine was not equipped for 3D reconstruction, so the same formula V=(L×S^2)/2 was used to estimate the tumor volumes and changes. […] When appropriate, a fifth dose was given on the final day four hours prior to necropsy for pharmacological analyses.
(§3) Tissues were fixed in 10% formalin solution for 24 hours and transferred to 70% ethanol. Tissues were paraffin embedded, sectioned and rehydrated. For CD31 IHC, sections were unmasked in 10 mM EDTA, pH 8.0 in a pressure cooker. For all other antibodies, sections were unmasked in 10 mM citric acid in a pressure cooker. Endogenous peroxidases were quenched in 3% H2O2/PBS for 20 minutes. […]

[11] = system: transplanted pancreatic tumors; test: Apoptosis in transplanted tumors (cleaved caspase 3 immunohistochemistry); format: in vivo, mouse; conditions: gemcitabine Q3Dx4
Method: as §2, §3

[12] = 19F NMR of fluorinated gemcitabine metabolites in tissue; format: in vivo, mouse; conditions: six hours after gemcitabine dosage; pilot experiments
Method: Mice were treated with indicated regiments for 12 days. […] Tissues were rapidly dissected and snap frozen in liquid nitrogen. Tissue specimens were maintained at −80° C. until subjected to nucleotide extraction. Samples were homogenized in a Qiagen TissueLyser with a 5 mm ball bearing for 2×6 minutes at 25 KHz, in the presence of 4 volumes of ice-cold acetonitrile (μL acetonitrile=4×[…] of tissue). An equal volume of water was added and then the sample was spun at 14,000 rpm for 10 minutes at 4° C. Supernatant was freeze dried, resuspended in 600 μL of D2O and transferred to a 5 mm standard NMR tube (Wilmad) for ^19F NMR analysis on a Bruker 600 MHZ (14.1T) Avance NMR spectrometer using a QNP probe. Acquisition parameters included a 1D pulse sequence of ^19F observation and inverse-gated ^1H decoupling, spectral sweep width of 177 ppm (100000 Hz), 4096 scans and 1.65 sec of repetition time. Total acquisition time for each sample was about 1 hr 55 min. Trichloro-fluoro-methane was used for ^19F NMR chemical shift calibrations. A broad hump observed in the baseline of ^19F NMR spectra was removed by application of Linear-prediction (LP) back projection to the time domain data by using 2000 (number of LP) coefficients and 128 back-prediction points prior to Fourier transformation and phase correction. […]

[13] = system: transplanted pancreatic tumors; test: Growth of subcutaneous and orthotopic transplanted pancreatic tumors; format: in vivo; conditions: transplantation models of human or mouse origin; gemcitabine Q3Dx4, 12 days
Method: The human pancreatic cancer cell line AsPc1 was cultured according to instructions. Mouse pancreatic cancer cell lines […], […] and DT8082 were isolated from tumors arising in KPC mice using a modification of the protocol described by Schreiber et al., Gastroenterology (20004) 127:250. Briefly, a 3 mm^3 fragment of PDA was excised, washed in 10 mL of cold PBS, and then finely diced with sterile razors. Cells were incubated in 10 mL of collagenase solution at 37° C. for 30-45 minutes with mixing (1 mg/mL collagenase V in DMEM/F12). Cells were spun (100 rpm, 5 min.) and resuspended in 0.05% Trypsin/EDTA for 5 min. at 37° C., and then quenched with DMEM supplemented with 10% fetal calf serum and 96 μM CaCl2. Cells were washed 3 times with DMEM/F12 medium and plated in a 6-well Biocoat dish (Becton Dickenson) in the ductal cell medium. After 3-4 passages, cells were transferred to standard plastic tissue culture dishes and grown in DMEM+10% FCS. 1×10^6 cells suspended in 100 μL of PBS were injected subcutaneously into the flanks of nude mice (xenografts) or into immunocompetent mice (syngeneic). For syngeneic models, recipient mice were descended from mice used to generate the KPC PDA cell lines. […] Long (L) and short (S) axes of each tumor were measured with calipers (for subcutaneous tumors) or ultrasound (for orthotopic tumors). Tumor volume (V) was calculated: V=(L×S^2)/2. […]

SMILES: O=C([O-])CN(CCN(CC(=O)[O-])CC(=O)O)CCN(CC(=O)[O-])CC(=O)O.[Gd+3] [Gd-DTPA, gadolinium-diethyltriaminepentaacetic acid]
Gd-DTPA enhancement within KPC tumors [1]: little or no enhancement within the tumor body

doxorubicin delivery to KPC pancreatic tumors [2]: marked decrease in doxorubicin delivery
SMILES: COc1cccc2c1C(=O)c1c(O)c3c(c(O)c1C2=O)C[C@@](O)(C(=O)CO)C[C@@H]3O[C@H]1C[C@H](N)[C@H](O)[C@H](C)O1 [doxorubicin]

SMILES: Nc1ccn([C@@H]2O[C@H](CO)[C@@H](O)C2(F)F)c(=O)n1 [gemcitabine, 2′,2′-difluorodeoxycytidine]
effect on survival of KPC mice [3]: Neither gemcitabine nor Compound A treatment had an effect on the survival
dFdCTP in KPC tumors [4]: absent
dFdCTP in transplanted tumor tissues and control tissues [4]: present
proliferation of KPC tumors (KPC tumors [5]): significantly diminished; also recorded: decreased
apoptosis in KPC tumors (KPC tumors [6]): unchanged in most KPC tumors
extension of survival ([7]; pancreatic ductal adenocarcinoma, standard-of-care therapy): a few weeks
patients with objective radiographic response at the primary tumor site ([7]; patients, Tempero et al. 2003): 5-10%
objective (ultrasonographic) response, responding mice/treated mice (KPC pancreatic tumors): 2/10
tumor stroma / histological pattern (KPC tumors [8]): dense stromal matrix
half-life of gemcitabine in circulating blood [9]: short half-life
proliferative rate of transplanted tumors [10]: significantly lower proliferative rates
apoptosis in transplanted tumors [11]: no significant changes in apoptosis
19F signals in PDA and control tissues [12]: absent
tumor growth of transplanted tumors [13]: substantial inhibition of tumor growth
